Data on two compounds can be found in patent publication US10954503B2, “Antidotes for factor Xa inhibitors and methods of using the same” (Alexion Pharmaceuticals, Inc., priority 2007, dated 2021).

The conditions of data set [1]: in vivo; cited from earlier work.
Another data set concerns thrombin generation. Put plainly: Thrombin generation assay in platelet poor or platelet rich plasma (RFU). Type of data set: biochemical, human. The conditions noted are these: betrixaban 250 nM; all rfVIIa concentrations tested.
A further data set deals with aPTT of human plasma. Put plainly: aPTT clotting assay with MLA Electra 800 automatic coagulation timer. The data set is classed as biochemical.

In the case of `O=C(NC[C@H]1CN(c2ccc(N3CCOCC3=O)cc2)C(=O)O1)c1ccc(Cl)s1` [rivaroxaban], the reported therapeutic concentration entry in data set [1] is “approximately 600 nM”.

In the case of `COc1ccc(NC(=O)c2ccc(C(=N)N(C)C)cc2)c(C(=O)Nc2ccc(Cl)cn2)c1` [betrixaban, [2-({4-[(dimethylamino)iminomethyl]phenyl}carbonylamino)-5-methoxyphenyl]-N-(5-chloro(2-pyridyl))carboxamide], the “inhibition of fXa by betrixaban in the presence of rfVIIa” value with thrombin generation is “about 75%”. Further, the entries for the “aPTT” value with aPTT of human plasma (300 nM Betrixaban alone) and in the data set on aPTT of human plasma (400 nM Betrixaban alone) were 61.8 s and 66.3 s, respectively. In addition, in the data set on aPTT of human plasma (400 nM betrixaban), the “extension of aPTT” value is listed as “more than two folds”.
